In ChEMBL document CHEMBL1132301, “Carbonic anhydrase inhibitors. Synthesis of water-soluble, topically effective, intraocular pressure-lowering aromatic/heterocyclic sulfonamides containing cationic or anionic moieties: is the tail more important than the ring?” (J Med Chem, 1999):
Converted amounts (≈) assume the structure as drawn.

Experiments:
[1] = target: T1, Carbonic anhydrase 2 (Homo sapiens, UniProt P00918)
Description: Inhibitory activity against human recombinant carbonic anhydrase II

[2] = species: Oryctolagus cuniculus; type: functional, Eye
Description: In vivo fall of IOP of normotensive rabbits after treatment with 1 drop(50 microL) of 2% solution of CA inhibitor with pH value 5.5 into the eye at 60 min

[3] = species: Oryctolagus cuniculus; type: functional, Eye; remark: listed apart in the source
Description: In vivo fall of IOP of normotensive rabbits after treatment with 1 drop(50 microL) of 2% solution of CA inhibitor with pH value 5.5 into the eye at 90 min.

[4] = species: Oryctolagus cuniculus; type: functional, Eye; remark: listed apart in the source
Description: In vivo fall of IOP of normotensive rabbits after treatment with 1 drop(50 microL) of 2% solution of CA inhibitor with pH value 5.5 into the eye at 0 min

[5] = species: Oryctolagus cuniculus; type: functional, Eye; remark: listed apart in the source
Description: In vivo fall of IOP of normotensive rabbits after treatment with 1 drop(50 microL) of 2% solution of CA inhibitor with pH value 5.5 into the eye at 30 min

[6] = target: T2, Carbonic anhydrase 4 (Bos taurus, UniProt Q95323)
T2 sequence (Q95323 whole entry): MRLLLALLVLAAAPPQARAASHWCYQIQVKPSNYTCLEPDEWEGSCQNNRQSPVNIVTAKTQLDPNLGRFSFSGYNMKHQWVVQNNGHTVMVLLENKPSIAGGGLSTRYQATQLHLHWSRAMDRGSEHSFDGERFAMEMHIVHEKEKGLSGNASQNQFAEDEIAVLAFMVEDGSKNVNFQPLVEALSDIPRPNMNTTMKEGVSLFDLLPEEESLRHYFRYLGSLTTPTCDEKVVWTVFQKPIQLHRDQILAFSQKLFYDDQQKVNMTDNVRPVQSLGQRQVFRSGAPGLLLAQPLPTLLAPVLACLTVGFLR
Description: Inhibitory activity against bovine lung microsomes carbonic anhydrase isozyme IV (bCA IV).

[7] = target: T3, Carbonic anhydrase 1 (Homo sapiens, UniProt P00915)
T3 sequence (P00915 whole entry): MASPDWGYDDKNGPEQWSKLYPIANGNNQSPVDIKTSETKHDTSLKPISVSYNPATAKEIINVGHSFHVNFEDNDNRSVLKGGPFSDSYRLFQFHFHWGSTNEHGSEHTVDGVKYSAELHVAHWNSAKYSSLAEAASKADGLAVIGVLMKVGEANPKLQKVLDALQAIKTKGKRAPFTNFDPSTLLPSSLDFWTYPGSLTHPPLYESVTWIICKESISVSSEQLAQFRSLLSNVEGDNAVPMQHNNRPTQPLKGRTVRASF
Description: Inhibitory activity against human cloned carbonic anhydrase isozyme I (hCA I, cytosolic form).

[8] = target: T1, Carbonic anhydrase 2; remark: listed apart in the source
Description: Inhibitory activity against human cloned Carbonic anhydrase II (hCA II, cytosolic form).

[9] = target: T3, Carbonic anhydrase 1; remark: listed apart in the source
Description: Inhibition of human cloned Carbonic anhydrase I (hCA I,cytosolic form)

[10] = Compound was tested for solubility in pH buffer, at 25 degree C.; type: ADME
[11] = octanol/water
Description: Partition coefficient (logD) (chloroform/buffer)

[12] = species: Oryctolagus cuniculus
Description: Compound was tested in vitro for corneal permeability of compound across the Denuded epithelial cornea obtained from rabbit

[13] = species: Oryctolagus cuniculus; remark: listed apart in the source
Description: Compound was tested in vitro for corneal permeability of compound across the intact cornea obtained from rabbit

SMILES	Ki [1] [nM]	Ki [6] [nM]	Ki [7] [nM]	further results
NS(=O)(=O)c1ccc(CCNC(=O)c2cccc(C(=O)O)n2)cc1	7	–	–	–
CCN(C(=O)c1cccnc1C(=O)O)C1CC(C)S(=O)(=O)c2sc(S(N)(=O)=O)cc21.CCN(C(=O)c1ncccc1C(=O)O)C1CC(C)S(=O)(=O)c2sc(S(N)(=O)=O)cc21.Cl (configuration not stated)	–	–	–	Delta IOP [2]: 5.2 mmHg; Delta IOP [3]: 3.5 mmHg; Delta IOP [4]: 0 mmHg; Delta IOP [5]: 2.4 mmHg
NS(=O)(=O)c1cc(S(N)(=O)=O)c(NC(=O)c2cccc(C(=O)O)n2)c(Cl)c1Cl	10	55	450	–
NS(=O)(=O)c1cc(S(N)(=O)=O)c(N2C(=O)c3cccnc3C2=O)cc1Cl	–	60	–	Ki [8]: 9 nM; Ki [9]: 600 nM
NS(=O)(=O)c1nnc(NC(=O)c2cccc(C(=O)[O-])n2)s1.[Na+]	–	–	–	Delta IOP [4]: 0 mmHg
NS(=O)(=O)c1ccc(N2C(=O)c3cccnc3C2=O)cc1	–	170	–	Ki [8]: 132 nM; Ki [9]: 15500 nM
NS(=O)(=O)c1ccc(CONC(=O)c2cccc(C(=O)O)n2)cc1	20	120	2050	–
NS(=O)(=O)c1ccc(CCO)cc1	–	450	–	–
NS(=O)(=O)c1ccc(CCONC(=O)c2cccc(C(=O)O)n2)cc1	15	105	2000	–
NS(=O)(=O)c1cccc(N2C(=O)c3cccnc3C2=O)c1	–	305	–	Ki [8]: 250 nM; Ki [9]: 20000 nM
NS(=O)(=O)c1nnc(N2C(=O)c3cccnc3C2=O)s1	–	18	–	solubility [10]: 72 mM (≈ 22.4 mg/mL); Ki [8]: 8 nM; Ki [9]: 39 nM; logD [11]: 0.315; Kin [12]: 7600 h⁻¹; Kin [13]: 2500 h⁻¹
Cl.NS(=O)(=O)c1ccc(CCN2C(=O)c3cccnc3C2=O)cc1	–	–	–	Delta IOP [2]: 4.8 mmHg; Delta IOP [3]: 4.2 mmHg; Delta IOP [4]: 0 mmHg; Delta IOP [5]: 2.7 mmHg
NS(=O)(=O)c1nnc(NC(=O)c2cccc(C(=O)O)n2)s1	6	21	36	solubility [10]: 83 mM (≈ 27.3 mg/mL); logD [11]: 0.085; Kin [12]: 6400 h⁻¹; Kin [13]: 1100 h⁻¹
NS(=O)(=O)c1nc2ccc(ONC(=O)c3cccc(C(=O)O)n3)cc2s1	2	13	16	–
NS(=O)(=O)c1ccc(N2C(=O)c3cccnc3C2=O)c(I)c1	33	70	610	–
NS(=O)(=O)c1ccc(NC(=O)c2cccc(C(=O)O)n2)c(Br)c1	–	69	575	–
NS(=O)(=O)c1ccc(CNC(=O)c2cccc(C(=O)O)n2)cc1	36	–	–	–
NS(=O)(=O)c1ccc(CCN2C(=O)c3cccnc3C2=O)cc1	9	54	845	–
NS(=O)(=O)c1ccc(NC(=O)c2cccc(C(=O)O)n2)cc1	–	150	15000	–
NS(=O)(=O)c1ccccc1NC(=O)c1cccc(C(=O)O)n1	–	300	–	–
Nc1c(S(N)(=O)=O)cc(S(N)(=O)=O)c(Cl)c1Cl	–	175	6100	–
NS(=O)(=O)c1ccc(NC(=O)c2cccc(C(=O)O)n2)c(I)c1	–	–	600	–
CCOc1ccc2nc(S(N)(=O)=O)sc2c1 [ETHOXZOLAMIDE]	–	–	–	solubility [10]: 0.04 mM (≈ 0.0103 mg/mL)
NS(=O)(=O)c1nc2ccc(OCCONC(=O)c3cccc(C(=O)O)n3)cc2s1	3	10	15	–
NS(=O)(=O)c1ccc(N2C(=O)c3cccnc3C2=O)c(F)c1	10	46	540	–
NS(=O)(=O)c1nnc(NC(=O)CCN2C(=O)c3cccnc3C2=O)s1	–	–	–	solubility [10]: 81 mM (≈ 31 mg/mL); Ki [8]: 3 nM; Ki [9]: 18 nM; logD [11]: 0.449; Kin [12]: 9700 h⁻¹; Kin [13]: 3800 h⁻¹

SMILES	Ki [1] [nM]	Ki [6] [nM]	Ki [7] [nM]	further results
Nc1ccc2nc(S(N)(=O)=O)sc2c1	–	19	–	Ki [9]: 70 nM
Cl.NS(=O)(=O)c1nc2ccc(OCCONC(=O)c3cccc(C(=O)O)n3)cc2s1	–	–	–	Delta IOP [2]: 7.2 mmHg; Delta IOP [3]: 9 mmHg; Delta IOP [4]: 0 mmHg; Delta IOP [5]: 4 mmHg
NS(=O)(=O)c1ccccc1N1C(=O)c2cccnc2C1=O	280	310	21000	–
NS(=O)(=O)c1nnc(NC(=O)CCNC(=O)c2cccc(C(=O)O)n2)s1	2	9	19	–
NS(=O)(=O)c1cc(S(N)(=O)=O)c(N2C(=O)c3cccnc3C2=O)c(Cl)c1Cl	–	69	–	Ki [8]: 12 nM; Ki [9]: 500 nM
NS(=O)(=O)c1ccc(N2C(=O)c3cccnc3C2=O)c(Br)c1	31	75	605	–
Nc1ccccc1S(N)(=O)=O	–	1310	–	–
NS(=O)(=O)c1ccc(NC(=O)c2cccc(C(=O)O)n2)c(Cl)c1	–	66	–	Ki [9]: 600 nM
NS(=O)(=O)c1ccc(CN2C(=O)c3cccnc3C2=O)cc1	42	79	–	–
NS(=O)(=O)c1nc2ccc(N3C(=O)c4cccnc4C3=O)cc2s1	–	9	–	Ki [8]: 4 nM; Ki [9]: 12 nM
Nc1ccc(S(N)(=O)=O)cc1F	–	180	–	–
NS(=O)(=O)c1nc2ccc(NC(=O)c3cccc(C(=O)O)n3)cc2s1	3	11	18	–
NS(=O)(=O)c1ccc(NC(=O)c2cccc(C(=O)O)n2)c(F)c1	8	–	–	solubility [10]: 66 mM (≈ 22.4 mg/mL); logD [11]: 0.117; Kin [12]: 7000 h⁻¹; Kin [13]: 1600 h⁻¹
Cl.NS(=O)(=O)c1ccc(NC(=O)c2cccc(C(=O)O)n2)c(F)c1	–	–	–	Delta IOP [2]: 4.2 mmHg; Delta IOP [3]: 3.9 mmHg; Delta IOP [4]: 0 mmHg; Delta IOP [5]: 2.5 mmHg
NS(=O)(=O)c1ccc(NNC(=O)c2cccc(C(=O)O)n2)cc1	270	–	20600	–
Nc1ccc(S(N)(=O)=O)cc1I	–	125	6000	–
NCCC(=O)Nc1nnc(S(N)(=O)=O)s1	–	125	–	–
CCN(C(=O)c1cccnc1C(=O)O)C1CC(C)S(=O)(=O)c2sc(S(N)(=O)=O)cc21.CCN(C(=O)c1ncccc1C(=O)O)C1CC(C)S(=O)(=O)c2sc(S(N)(=O)=O)cc21 (configuration not stated)	–	18	450	–
NS(=O)(=O)c1nc2ccc(OCCO)cc2s1	–	15	[…]	–
NS(=O)(=O)c1cccc(NC(=O)c2cccc(C(=O)O)n2)c1	–	285	–	–
NS(=O)(=O)c1ccc(N2C(=O)c3cccnc3C2=O)c(Cl)c1	44	79	620	–
Nc1ccc(S(N)(=O)=O)cc1Br	–	66	–	–
Cl.NS(=O)(=O)c1nnc(N2C(=O)c3cccnc3C2=O)s1	–	–	–	Delta IOP [2]: 9 mmHg; Delta IOP [3]: 8.1 mmHg; Delta IOP [4]: 0 mmHg; Delta IOP [5]: 5.4 mmHg
NS(=O)(=O)c1ccc(NN2C(=O)c3cccnc3C2=O)cc1	275	300	21500	–
NS(=O)(=O)c1cc(S(N)(=O)=O)c(NC(=O)c2cccc(C(=O)O)n2)cc1Cl	9	–	–	–
Cn1nc(S(N)(=O)=O)s/c1=N\C(=O)c1cccc(C(=O)O)n1	7	19	35	solubility [10]: 79 mM (≈ 27.1 mg/mL); logD [11]: 0.428; Kin [12]: 8500 h⁻¹; Kin [13]: 3600 h⁻¹
